Results published in publication PMC7996098, “High-Level Extracellular Expression of a New β-N-Acetylglucosaminidase in Escherichia coli for Producing GlcNAc” (Frontiers in Microbiology, 2021).

Target: T1, BlNagZ (Bacillus licheniformis, UniProt Q65P58)
T1 construct: gene ybbD; pET26b, PelB signal peptide (excised on secretion) fused to ORF amplified from its start codon; His-tag purified; E. coli BL21(DE3) supernatant
Experiment: p-nitrophenol release, absorbance […] nm
Assay type: biochemical
Conditions: substrate of the Km not given, taken from the standard assay; pH 5.5, 60 °C (standard assay), 50 mM phosphate; read-out: Km (μ mol/L)

T1 sequence (Q65P58 entry or part of it): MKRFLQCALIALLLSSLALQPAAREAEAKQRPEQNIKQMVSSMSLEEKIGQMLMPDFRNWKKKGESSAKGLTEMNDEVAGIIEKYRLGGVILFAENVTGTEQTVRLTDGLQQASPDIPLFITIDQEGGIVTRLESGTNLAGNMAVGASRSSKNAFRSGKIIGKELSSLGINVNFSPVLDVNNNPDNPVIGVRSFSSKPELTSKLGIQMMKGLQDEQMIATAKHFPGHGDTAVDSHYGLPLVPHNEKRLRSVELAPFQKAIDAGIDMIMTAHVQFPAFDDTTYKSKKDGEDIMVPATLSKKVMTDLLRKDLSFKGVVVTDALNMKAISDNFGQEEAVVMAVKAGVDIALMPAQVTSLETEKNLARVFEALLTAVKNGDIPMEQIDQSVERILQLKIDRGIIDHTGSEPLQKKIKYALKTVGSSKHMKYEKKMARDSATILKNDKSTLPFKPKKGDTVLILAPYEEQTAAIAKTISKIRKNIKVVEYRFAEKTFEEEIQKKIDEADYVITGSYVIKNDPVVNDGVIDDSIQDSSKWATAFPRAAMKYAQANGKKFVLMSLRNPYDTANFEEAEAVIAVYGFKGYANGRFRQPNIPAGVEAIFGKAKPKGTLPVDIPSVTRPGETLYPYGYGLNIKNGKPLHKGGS

Km: 0.000932 mol/L
Structure (SMILES): CC(=O)N[C@H]1[C@H](Oc2ccc([N+](=O)[O-])cc2)O[C@H](CO)[C@@H](O)[C@@H]1O [pNP-β-D-GlcNAc]
